Results as given in patent US9884832B2 (priority 2011, dated 2018).
Where two headings read alike, the source gives them in different places.

Legend:
[1] = molecular target: AM2 V27A (valine→alanine mutation at residue 27 in the M2 protein) (Influenza A virus, UniProt P0DOF5, V27A); format: cell-based, influenza virus A/Udorn/72
[2] = molecular target: AM2 S31N (serine→asparagine mutation at residue 31 in the M2 protein) (Influenza A virus, UniProt P0DOF5, S31N); format: cell-based, influenza virus A/Udorn/72

Row | Structure (SMILES) | V27A OOcyte Inhibition at 100 uM (%) ([1]; pH 5.5) | S31N OOcyte Inhibition at 100 uM (%) ([2]; pH 5.5) | V27A OOcyte Inhibition at 100 uM (%) [1] | S31N OOcyte Inhibition at 100 uM (%) [2]
1 | [O-][S+]1Cc2cc(CNC34CC5CC(CC(C5)C3)C4)sc2C1 (stereo not shown) [Example 85, Adamantan-1-yl-(5-oxo-5,6-dihydro-4H-5M-thieno[3,4-b]thiophen-2-ylmethyl)-amine] | B (key: (A)=31-95%; (B)=0-30%) | B (key: (A)=31-95%; (B)=0-30%) | – | –
2 | COc1ccccc1COc1ccc(CNC23CC4CC(CC(C4)C2)C3)cc1 [Example 15a, Adamantan-1-yl-[4-(2-methoxy-benzyloxy)-benzyl]-amine] | – | – | B (key: (A)=31-95%; (B)=0-30%) | A (key: (A)=31-95%; (B)=0-30%)
3 | c1cc(CNC23CC4CC(CC(C4)C2)C3)cc(-c2cccs2)c1 [Example 34a, N-(3-(thiophen-2-yl)benzyl)adamantan-1-amine] | – | – | A (key: (A)=31-95%; (B)=0-30%) | B (key: (A)=31-95%; (B)=0-30%)
4 | COc1ccc(CNC23CC4CC(CC(C4)C2)C3)s1 [Example 75a, N-((5-methoxythiophen-2-yl)methyl)adamantan-1-amine] | – | – | B (key: (A)=31-95%; (B)=0-30%) | A (key: (A)=31-95%; (B)=0-30%)
5 | Cc1csc2sc(CNC34CC5CC(CC(C5)C3)C4)c(C)c12 [Example 176a] | – | – | B (key: (A)=31-95%; (B)=0-30%) | B (key: (A)=31-95%; (B)=0-30%)
6 | Oc1ccc(CNC23CC4CC(CC(C4)C2)C3)cc1O [Example 45, 4-(Adamantan-1-ylaminomethyl)-benzene-1,2-diol] | A (key: (A)=31-95%; (B)=0-30%) | B (key: (A)=31-95%; (B)=0-30%) | – | –
7 | COc1ccc(-c2cc(CNC34CC5CC(CC(C5)C3)C4)no2)cc1 [Example 110a, N-((5-(4-methoxyphenyl)isoxazol-3-yl)methyl)adamantan-1-amine] | – | – | B (key: (A)=31-95%; (B)=0-30%) | A (key: (A)=31-95%; (B)=0-30%)
8 | O=[N+]([O-])c1ccc(CNC23CC4CC(CC(C4)C2)C3)s1 [Example 100a, N-((5-nitrothiophen-2-yl)methyl)adamantan-1-amine] | – | – | A (key: (A)=31-95%; (B)=0-30%) | B (key: (A)=31-95%; (B)=0-30%)
9 | Oc1ccc(CNC23CC4CC(CC(C4)C2)C3)cc1 [Example 9, 4-(Adamantan-1-ylaminomethyl)-phenol] | B (key: (A)=31-95%; (B)=0-30%) | A (key: (A)=31-95%; (B)=0-30%) | – | –
10 | Oc1c(CNC23CC4CC(CC(C4)C2)C3)ccc2ccccc12 [Example 97, 2-(Adamantan-1-ylaminomethyl)-naphthalen-1-ol] | B (key: (A)=31-95%; (B)=0-30%) | A (key: (A)=31-95%; (B)=0-30%) | – | –
11 | Cc1ccc(-c2ccc(CNC34CC5CC(CC(C5)C3)C4)s2)s1 [Example 141a, N-((5′-methyl-[2,2′-bithiophen]-5-yl)methyl)adamantan-1-amine] | – | – | B (key: (A)=31-95%; (B)=0-30%) | A (key: (A)=31-95%; (B)=0-30%)
12 | c1ccc(CNC23CC4CC(CC(C4)C2)C3)nc1 [Example 72, Adamantan-1-yl-pyridin-2-ylmethyl-amine] | B (key: (A)=31-95%; (B)=0-30%) | B (key: (A)=31-95%; (B)=0-30%) | – | –
13 | Clc1c(CNC23CC4CC(CC(C4)C2)C3)nc2sccn12 [Example 87, Adamantan-1-yl-(5-chloro-imidazo[2,1-b]thiazol-6-ylmethyl)-amine] | B (key: (A)=31-95%; (B)=0-30%) | B (key: (A)=31-95%; (B)=0-30%) | – | –
14 | c1cc(-c2ccc(CNC34CC5CC(CC(C5)C3)C4)o2)[nH]n1 [Example 162a, N-((5-(1H-pyrazol-5-yl)furan-2-yl)methyl)adamantan-1-amine] | – | – | B (key: (A)=31-95%; (B)=0-30%) | B (key: (A)=31-95%; (B)=0-30%)
15 | COc1cc(O)ccc1CNC12CC3CC(CC(C3)C1)C2 [Example 56, 4-(Adamantan-1-ylaminomethyl)-3-methoxy-phenol] | B (key: (A)=31-95%; (B)=0-30%) | B (key: (A)=31-95%; (B)=0-30%) | – | –
16 | FC(F)(F)Sc1ccc(CNC23CC4CC(CC(C4)C2)C3)cc1 [Example 26, Adamantan-1-yl-(4-trifluoromethylsulfanyl-benzyl)-amine] | B (key: (A)=31-95%; (B)=0-30%) | A (key: (A)=31-95%; (B)=0-30%) | – | –
17 | Brc1cccc(CNC23CC4CC(CC(C4)C2)C3)c1 [Example 3a, N-(3-Bromobenzyl)adamantan-1-amine] | – | – | B (key: (A)=31-95%; (B)=0-30%) | B (key: (A)=31-95%; (B)=0-30%)
18 | N#Cc1ccc(CNC23CC4CC(CC(C4)C2)C3)cc1 [Example 14, 4-(Adamantan-1-ylaminomethyl)-benzonitrile] | B (key: (A)=31-95%; (B)=0-30%) | B (key: (A)=31-95%; (B)=0-30%) | – | –

Row | Structure (SMILES) | V27A OOcyte Inhibition at 100 uM (%) ([1]; pH 5.5) | S31N OOcyte Inhibition at 100 uM (%) ([2]; pH 5.5) | V27A OOcyte Inhibition at 100 uM (%) [1] | S31N OOcyte Inhibition at 100 uM (%) [2]
19 | C[S+]([O-])c1ccc(CNC23CC4CC(CC(C4)C2)C3)cc1 (stereo not shown) [Example 24, Adamantan-1-yl-(4-methanesulfinyl-benzyl)-amine] | B (key: (A)=31-95%; (B)=0-30%) | B (key: (A)=31-95%; (B)=0-30%) | – | –
20 | c1ccc(Oc2ccc(CNC34CC5CC(CC(C5)C3)C4)cc2)cc1 [Example 13a, Adamantan-1-yl-(4-phenoxy-benzyl)-amine] | – | – | B (key: (A)=31-95%; (B)=0-30%) | A (key: (A)=31-95%; (B)=0-30%)
21 | Clc1ccc(CNC23CC4CC(CC(C4)C2)C3)s1 [Example 79a, N-((5-chlorothiophen-2-yl)methyl)adamantan-1-amine] | – | – | B (key: (A)=31-95%; (B)=0-30%) | A (key: (A)=31-95%; (B)=0-30%)
22 | COc1ccccc1CNC12CC3CC(CC(C3)C1)C2 [Example 29, Adamantan-1-yl-(2-methoxy-benzyl)-amine] | B (key: (A)=31-95%; (B)=0-30%) | B (key: (A)=31-95%; (B)=0-30%) | – | –
23 | Cc1c(CNC23CC4CC(CC(C4)C2)C3)sc2ccccc12 [Example 177a, Adamantan-1-yl-(3-methyl-benzo[b]thiophen-2-ylmethyl)-amine] | – | – | B (key: (A)=31-95%; (B)=0-30%) | B (key: (A)=31-95%; (B)=0-30%)
24 | c1cn2cc(CNC34CC5CC(CC(C5)C3)C4)nc2s1 [Example 86, Adamantan-1-yl-imidazo[2,1-b]thiazol-6-ylmethyl-amine] | B (key: (A)=31-95%; (B)=0-30%) | A (key: (A)=31-95%; (B)=0-30%) | – | –
25 | c1c(CNC2C3CC4CC(C3)CC2C4)nc2n1CCS2 (stereo not shown) [Example 105, Adamantan-2-yl-(2,3-dihydro-imidazo[2,1-b]thiazol-6-ylmethyl)-amine] | B (key: (A)=31-95%; (B)=0-30%) | B (key: (A)=31-95%; (B)=0-30%) | – | –
26 | c1cc2cc(CNC34CC5CC(CC(C5)C3)C4)ccc2s1 [Example 41a, N-(benzo[b]thiophen-5-ylmethyl)adamantan-1-amine] | – | – | A (key: (A)=31-95%; (B)=0-30%) | B (key: (A)=31-95%; (B)=0-30%)
27 | c1cc(CNC23CC4CC(CC(C4)C2)C3)co1 [Example 66a, Adamantan-1-yl-furan-3-ylmethyl-amine] | – | – | B (key: (A)=31-95%; (B)=0-30%) | B (key: (A)=31-95%; (B)=0-30%)
28 | c1coc(COc2ccc(CNC34CC5CC(CC(C5)C3)C4)cc2)c1 [Example 21, Adamantan-1-yl-[4-(furan-2-ylmethoxy)-benzyl]-amine] | A (key: (A)=31-95%; (B)=0-30%) | A (key: (A)=31-95%; (B)=0-30%) | – | –
29 | c1cc2cc(CNC34CC5CC(CC(C5)C3)C4)sc2s1 [Example 79, Adamantan-1-yl-thieno[2,3-b]thiophen-2-ylmethyl-amine] | B (key: (A)=31-95%; (B)=0-30%) | A (key: (A)=31-95%; (B)=0-30%) | – | –
30 | c1csc(-c2ncc(CNC34CC5CC(CC(C5)C3)C4)s2)c1 [Example 144a, N-((2-(thiophen-2-yl)thiazol-5-yl)methyl)adamantan-1-amine] | – | – | B (key: (A)=31-95%; (B)=0-30%) | A (key: (A)=31-95%; (B)=0-30%)
31 | Oc1ccc(CNC23CC4CC(CC2C4)C3)c(O)c1 [Example 111, 4-[(Hexahydro-2,5-methano-pentalen-3a-ylamino)-methyl]-benzene-1,3-diol] | B (key: (A)=31-95%; (B)=0-30%) | A (key: (A)=31-95%; (B)=0-30%) | – | –
32 | Nc1ccc(CNC23CC4CC(CC(C4)C2)C3)cc1 [Example 11, Adamantan-1-yl-(4-amino-benzyl)-amine] | B (key: (A)=31-95%; (B)=0-30%) | B (key: (A)=31-95%; (B)=0-30%) | – | –
33 | Cc1ccc(-c2ccc(CNC34CC5CC(CC(C5)C3)C4)cc2)o1.Cl [Example 32a, N-(4-(5-Methylfuran-2-yl)benzyl)adamantan-1-amine hydrochloride] | – | – | B (key: (A)=31-95%; (B)=0-30%) | A (key: (A)=31-95%; (B)=0-30%)
34 | c1c(CNC23CC4CC(CC(C4)C2)C3)sc2c1CSC2 [Example 84, Adamantan-1-yl-(4,6-dihydro-thieno[3,4-b]thiophen-2-ylmethyl)-amine] | B (key: (A)=31-95%; (B)=0-30%) | A (key: (A)=31-95%; (B)=0-30%) | – | –
35 | COc1cc(O)cc(OC)c1CNC12CC3CC(CC(C3)C1)C2 [Example 66, 4-(Adamantan-1-ylaminomethyl)-3,5-dimethoxy-phenol] | B (key: (A)=31-95%; (B)=0-30%) | B (key: (A)=31-95%; (B)=0-30%) | – | –
